# Like-named read-outs stand apart in the source and are kept apart here.
# Columns and labels:
# [1] = target: aldehyde reductase (ALR1) (Ovis aries, UniProt A0ACI6RLT8); test: ALR1 enzyme inhibition assay; format: biochemical, lamb; settings: for selectivity towards ALR1 over ALR2: from IC50 values on ALR1 and ALR2
# Protocol: (§1) The newly synthesized of 5-benzylidene rhodanine-3-acetamide derivatives 3(a–g) were evaluated for in vitro enzyme inhibitory potential on aldehyde and aldose reductase enzymes. […] IC50 ± SEM (µM) values were calculated for the compounds showing more than 50% inhibition against both the isozymes, (Table 1).
# (§2) All required chemicals used in the enzyme extraction procedure were of high analytical grade. Enzyme inhibitory assay was performed on ELISA microplate reader at 340 nm and 96 well-plates were used for the sample analysis. Micropipettes from Gilson were used for sample loading. Sodium-D-glucoronate and D,L-glyceraldehyde were used as substrates along with a cofactor i.e. NADPH (nicotinamide adenine dinucleotide phosphate) from Sigma Aldrich.
# Aldehyde reductase enzyme was extracted from lamb kidney and the cortical part was separated carefully. The cortex was homogenized in triple volume of extraction buffer (2.0 mM EDTA, 0.25 M sucrose, 10 mM sodium phosphate and 2.5 mM β-mercaptoethanol at pH 7.2). The homogenate was centrifuged at 12,000 rpm at 4 °C for 30 min, the insoluble precipitates were discarded and the supernatant was saturated with 40%, 50% and 75% ammonium sulfate respectively and after each addition the solution was centrifuged at 12,000 rpm at 4 °C for 30 min, each time the pallet was discarded and for the last saturation the supernatant was taken and dialyzed overnight in extraction buffer. Next day the protein content was calculated via Bradford method and the crude aldehyde reductase was stored at − 80 °C [30].
# The assay was performed on ELISA (Bio-Tek ELx800TM Instrument, Inc. USA) based spectrophotometric analysis in 96 well plate. The assay mixture was composed of 20 µL buffer (100 mM potassium dihydrogen phosphate pH 6.2), 10 µL test compound (1 mM), 70 µL enzyme and incubated for 10 min at 37 °C followed by addition of 40 µL Glucoronate 50 mM (as a substrate) and 50 µL (0.5 mM) NADPH (nicotinamide adenine dinucleotide phosphate) as a co-factor. After 30 min incubation optical density was measured at 340 nm.
# (§3) Results were analyzed by graph pad prism® software to calculate IC50 and percentage inhibition was calculated by the following formula.
# (§4) % Inhibition = […].
# aldose reductase (ALR2) = target: T1, aldose reductase (ALR2) (Bos taurus, UniProt P16116); test: ALR2 enzyme inhibition assay; format: biochemical, calf; settings: for IC50: substrate D,L-glyceraldehyde, cofactor NADPH, pH 6.2, 340 nm, read-out: ALR2 IC50 ± SEM
# T1 construct: The enzyme aldose reductase was extracted from calf lenses; from tissue; host or cells: calf lenses
# Protocol: as §1, §2
# The enzyme aldose reductase was extracted from calf lenses. 200–300 g lenses were added to triple volume of cold water and homogenized for 20 min. The homogenate was then centrifuged at 10,000 rpm for 15 min at 4 °C. The insoluble precipitates were discarded and the supernatant was saturated with 70% ammonium sulfate and after centrifugation at 10,000 rpm at 4 °C for 15 min the supernatant was dialyzed overnight and the protein contents was calculated via Bradford method and the crude aldose reductase was stored at −80 °C [31].
# The assay was performed on ELISA (Bio-Tek ELx800™ Instrument, Inc. USA) based spectrophotometric analysis in 96 well plate. The assay mixture was composed of 20 µL buffer (100 mM potassium dihydrogen phosphate pH 6.2), 10 µL test compound (1 mM), 70 µL enzyme and incubated for 10 min at 37 °C followed by addition of 40 µL substrate (D,L-glyceraldehyde 50 mM for ALR2) and 50 µL NADPH (0.5 mM) (nicotinamide adenine dinucleotide phosphate) as a co-factor. After 30 min incubation optical density was measured at 340 nm.
# as §3, §4
# [2] = substrate sodium D-glucuronate, cofactor NADPH, pH 6.2, 340 nm, read-out: ALR1 IC50 ± SEM
# aldehyde reductase (ALR1), sequence (A0ACI6RLT8 entry or part of it): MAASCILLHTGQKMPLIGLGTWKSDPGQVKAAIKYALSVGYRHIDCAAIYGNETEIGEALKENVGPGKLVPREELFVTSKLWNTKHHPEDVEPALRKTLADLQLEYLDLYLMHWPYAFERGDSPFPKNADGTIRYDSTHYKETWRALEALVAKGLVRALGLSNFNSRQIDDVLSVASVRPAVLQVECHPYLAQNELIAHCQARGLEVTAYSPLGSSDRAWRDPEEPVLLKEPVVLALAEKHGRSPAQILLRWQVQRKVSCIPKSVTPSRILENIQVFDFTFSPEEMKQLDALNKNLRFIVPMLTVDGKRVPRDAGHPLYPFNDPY
Compound,"IC50 [1, 2] [µM]",IC50 (aldose reductase (ALR2)) [µM],melting point [°C],selectivity towards ALR2 over ALR1 (aldose reductase (ALR2); from IC50 values on ALR1 and ALR2),selectivity towards ALR1 over ALR2 [1],IC50 [1] [µM]
"COc1cc(/C=C2\SC(=S)N(CC(=O)N3CCOCC3)C2=O)ccc1O [Compound 3b, (Z)-5-(4-hydroxy-3-methoxybenzylidene)-3-(2-morpholino-2-oxoethyl)-2-thioxothiazolidin-4-one]",6.07 ± 0.05,19.2 ± 0.08,211 to 213,–,–,–
"COc1ccc(/C=C2\SC(=S)N(CC(=O)Nc3ccccc3)C2=O)cc1 [Compound 3e, (Z) 5-(4-methoxybenzylidene)-3-(2-anilino-2-oxoethyl)-2-thioxothiazolidin-4-one]",2.87 ± 0.01,12.71 ± 0.09,190 to 192,–,more selective and potent inhibitors of ALR1,–
"CCCC(CCC)C(=O)O [Valproic acid, reference compound]",–,–,–,–,–,57.4 ± 0.89
(Z) 5-(4-hydroxy-3-methoxybenzylidene)-3-(2-pyrrolidino-2-oxoethyl)-2-thioxothiazolidin-4-one [Compound 3g],2.22 ± 0.04,2.42 ± 0.03,–,–,–,–

# Second part, led by results:
"IC50 [1, 2] [µM]",IC50 (aldose reductase (ALR2)) [µM],melting point [°C],selectivity towards ALR2 over ALR1 (aldose reductase (ALR2); from IC50 values on ALR1 and ALR2),Compound,selectivity towards ALR1 over ALR2 [1],IC50 [1] [µM]
5.38 ± 0.07,0.25 ± 0.04,–,–,"COc1cc(/C=C2\SC(=S)N(CC(=O)Nc3ccccc3)C2=O)ccc1O [Compound 3a, (Z)-5-(4-hydroxy-3-methoxybenzylidene)-3-(2-anilino-2-oxoethyl)-2-thioxothiazolidin-4-one]",–,–
2.38 ± 0.02,6.38 ± 0.01,–,–,"COc1cc(/C=C2\SC(=S)N(CC(=O)Nc3ccc(C(=O)O)c(O)c3)C2=O)ccc1O [Compound 3c, 2-Hydroxy-4-({[(Z)-5-(4-hydroxy-3-methoxybenzylidene)-4-oxo-2-thioxo-1,3-thiazolidin-3-yl]acetyl}amino)benzoic acid]",–,–
3.76 ± 0.09,7.36 ± 0.02,217 to 219,–,"COc1cc(/C=C2\SC(=S)N(CC(=O)Nc3ccc(C(=O)O)cc3)C2=O)ccc1O [Compound 3d, 4-({[(Z)-5-(4-hydroxy-3-methoxybenzylidene)-4-oxo-2-thioxo-1,3-thiazolidin-3-yl]acetyl}amino)benzoic acid]",more selective and potent inhibitors of ALR1,–
2.18 ± 0.03,0.12 ± 0.01,203 to 205,selective towards ALR2,"COc1ccc(/C=C2\SC(=S)N(CC(=O)N3CCOCC3)C2=O)cc1 [Compound 3f, (Z) 5-(4-methoxybenzylidene)-3-(2-morpholino-2-oxoethyl)-2-thioxothiazolidin-4-one]",–,–
–,0.29 ± 0.08,–,–,"CC1=C(CC(=O)O)c2cc(F)ccc2/C1=C\c1ccc([S+](C)[O-])cc1 (centres unmarked) [Sulindac, reference compound]",–,–
